Converted amounts (≈) assume the structure as drawn. Read-outs that look alike come from different tables or passages of the source.
Experiments:
[1] = cited from earlier work
[2] = LLD solubility in NMP and in aqueous povidone; type: physicochemical
Method: These materials conform to a like-dissolves-like solubility. Acetonitrile was also evaluated as a polar aprotic solvent to assess solubility. Organic volatile solvents were assessed, not to include them into formulation approach for parenteral use, but to ascertain the potential solubility parameter requirements to solubilize the API.
Further, the polymer chain of povidone has specific hydrogen bonding affinity which provides enhanced solubility and protection of the primary amine of lenalidomide, which is most susceptible to oxidation.
Dissolution is usually complete within approximately 15 minutes for volumes of approximately 20 mL. It should be appreciated, however, that larger scale production may require longer dissolution times.

[3] = cited from earlier work; remark: listed apart in the source
[4] = Compatibility of lenalidomide with sodium metabisulfite antioxidant; type: physicochemical
[5] = Forced degradation of LLD solutions (acidic, basic, oxidative; 40° C.) by HPLC; type: physicochemical
Method: The primary analytical method for analysis of drug substance in solution is a stability-indicating method, which identifies and quantitates various primary and degradative peaks of the API by HPLC.
In the process of the analytical evaluation, forced degradation of the API in solution is performed to assess how identified chromatography peaks, primary and degradation/impurity are formed.

[6] = polar aprotic solvent in combination with PVP, in presence of water

Nc1cccc2c1CN(C1CCC(=O)NC1=O)C2=O (stereo not drawn) [LLD, 3-(4-amino-1-3-dihydro-1-oxo-2H-isoindol-2yl)-2,6-piperidinedione]
Total Related Substances by peak area ([1]; T0 upon preparation in standard solutions or formulations): > 1.5%
Total Related Substances ([1]; after 48 hours at ICH storage conditions): > 2.5%
Total Related Substances ([1]; after 48 hours, higher pH ranges such as pH 7.0 PBS): > 10%
Saturation point of LLD in NMP ([2]; NMP): approximately 30%
Solubility in NMP ([2]; NMP): approximately 30 % by weight
solubility ([2]; NMP (n-methyl-2-pyrrolidone), organic solvent or mixture, read-out: Solubility in NMP): ~300000 µg/mL (≈ 1160 mM)
Improvement of aqueous solubility by aqueous povidone solvent ([2]; aqueous povidone): 2-3 fold
solubility ([2]; aqueous povidone, aqueous with cosolvent or surfactant or cyclodextrin, with povidone, read-out: Aqueous solubility): ≤ 800 µg/mL
solubility ([2]; aqueous, without povidone, read-out: Aqueous solubility): ~200 µg/mL (≈ 0.771 mM)
Solubility of the LLD in solution [3]: < 400 µg/mL
solubility ([3]; pH about 6.0 to about 7.0, dependent on storage conditions): about 0.2 mg/mL
solubility ([3]; physiologically acceptable pH about 3 to about 8): no more than 0.4 mg/mL
Interaction with sodium metabisulfite as an antioxidant [4]: direct interaction with lenalidomide
LLD degraded ([5]; 1% PEG400, basic hydrolysis, FIG. 13): 100%
LLD degraded ([5]; 1% PG, basic hydrolysis, FIG. 14): 100%
Degradation of LLD ([5]; 1% PVP K-12, basic hydrolysis, FIG. 15): 100%
Total related impurities ([5]; below pH 4.5): negligible total related impurities
Hydrolytic degradation mitigated [5, 6]: > 90%
Oxidation mitigated [5, 6]: ~100%
Loss of LLD ([5]; presence of ACN, basic hydrolysis, FIG. 8): 100%
Loss of LLD ([5]; presence of IPA, basic hydrolysis, FIG. 7): 100%

Reference: US12390457B2, “Stable solutions of immunomodulatory imide compounds for parenteral use” (Starton Therapeutics, Inc., priority 2021, dated 2025)
